Experimental data taken from patent publication US20060211651A1, “Persulfated oligosaccharide acting on selectins and chemokine” (Taisho Pharmaceutical Co., Ltd., priority 2002, published 2006).

Legend:
[1] = molecular target: T1, L-selectin-Ig (Homo sapiens, UniProt P14151); assay: Binding inhibition assay (ELISA), biotinylated versican to L-selectin-Ig, various concentrations; conditions: dose-dependent, FIG. 2 panel A
T1 construct: purchased R & D Systems Inc
Protocol: (§1) Inhibition assay of binding between versican and each of L-selectin, P-selectin and CD44 was performed as follows. First, each well on a 96 well flat bottom microtiter plate (Coster EIA/RIA plate No. 3690) was coated with L-selectin-Ig (3 μg/ml), P-selectin-Ig (4 μg/ml) or CD44-Ig (0.25 μg/ml) by a conventional procedure. […] The plate was incubated at room temperature for 2 hours. Thereafter, the plate was washed with the buffer A, and enzyme-linked immunosorbent assay was performed in the same manner as described in Kawashima, H. et al. [J. Biol. Chem., 275, 35448-35456 (2000)]. Binding was determined by measuring absorbance at 620 nm using alkaline phosphatase-conjugated streptavidin and Blue Phos™ substrate.

[2] = test system: P-selectin-Ig; assay: Binding inhibition assay (ELISA), biotinylated versican to P-selectin-Ig, various concentrations; conditions: dose-dependent, FIG. 2 panel B
Protocol: as §1

T1 sequence (P14151 with tags, fused parts or gaps limits assumed): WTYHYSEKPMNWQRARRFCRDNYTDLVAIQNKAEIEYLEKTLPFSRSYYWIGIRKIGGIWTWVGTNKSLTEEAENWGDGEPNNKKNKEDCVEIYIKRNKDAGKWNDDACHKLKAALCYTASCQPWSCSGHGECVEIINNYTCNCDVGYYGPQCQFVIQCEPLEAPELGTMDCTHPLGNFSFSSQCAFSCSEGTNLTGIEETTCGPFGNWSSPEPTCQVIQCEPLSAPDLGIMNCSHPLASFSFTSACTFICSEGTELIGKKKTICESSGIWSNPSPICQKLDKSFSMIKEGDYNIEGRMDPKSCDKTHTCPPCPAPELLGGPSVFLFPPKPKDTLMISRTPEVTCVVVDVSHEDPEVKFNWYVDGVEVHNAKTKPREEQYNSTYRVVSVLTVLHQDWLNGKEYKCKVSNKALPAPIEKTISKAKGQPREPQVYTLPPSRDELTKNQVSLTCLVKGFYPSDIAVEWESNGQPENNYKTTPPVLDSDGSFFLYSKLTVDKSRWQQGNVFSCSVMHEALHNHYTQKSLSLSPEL

- inhibition of binding between biotinylated versican and L-selectin-Ig [1]: not inhibited
- inhibition of binding between biotinylated versican and P-selectin-Ig [2]: not inhibited
Substance: dermatan sulfate [DS]
